Measured values published in PubChem BioAssay AID248 (DTP/NCI, 2004).
“And” between values parts separate entries of the source, which are not always exact repeats. Identical values can stand only once. Toxic doses and inconclusive results are not listed. No stated cut-off is given here; in the data, active means T/C of 150% or more; inactive means T/C below 125%.

Tested on: L1210 leukemia ip in BDF1 mice, survival T/C
Assay: NCI In Vivo Anticancer Drug Screen. Data for tumor model L1210 Leukemia (intraperitoneal) in B6D2F1 (BDF1) mice
Settings: endpoint: mean survival time, higher = longer survival
In short: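 Mice bearing the transplanted tumor received compound or vehicle. Survival of the treated group was divided by that of the vehicle-treated control group to give the ratio.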

[1] = dose: 100.0 mg/kg/injection, schedule: Q01DX001 (ip), vehicle: saline
[2] = dose: 200.0 mg/kg/injection, schedule: Q01DX001 (ip), vehicle: saline
[3] = dose: 100.0 mg/kg/injection, schedule: Q01DX009 (ip), vehicle: Klucel (hydroxypropylcellulose) (HPC)
[4] = dose: 100.0 mg/kg/injection, schedule: Q04DX003 (ip), vehicle: Klucel (hydroxypropylcellulose) (HPC)
[5] = dose: 200.0 mg/kg/injection, schedule: Q01DX009 (ip), vehicle: Klucel (hydroxypropylcellulose) (HPC)
[6] = dose: 200.0 mg/kg/injection, schedule: Q04DX003 (ip), vehicle: Klucel (hydroxypropylcellulose) (HPC)
[7] = dose: 400.0 mg/kg/injection, schedule: Q01DX009 (ip), vehicle: Klucel (hydroxypropylcellulose) (HPC)
[8] = dose: 400.0 mg/kg/injection, schedule: Q04DX003 (ip), vehicle: Klucel (hydroxypropylcellulose) (HPC)
[9] = dose: 50.0 mg/kg/injection, schedule: Q01DX009 (ip), vehicle: saline
[10] = dose: 100.0 mg/kg/injection, schedule: Q04DX003 (ip), vehicle: saline with Tween-80
[11] = dose: 200.0 mg/kg/injection, schedule: Q04DX003 (ip), vehicle: saline with Tween-80
[12] = dose: 400.0 mg/kg/injection, schedule: Q04DX003 (ip), vehicle: saline with Tween-80
[13] = dose: 50.0 mg/kg/injection, schedule: Q01DX009 (ip), vehicle: saline with Tween-80
[14] = dose: 50.0 mg/kg/injection, schedule: Q04DX003 (ip), vehicle: saline with Tween-80
[15] = dose: 100.0 mg/kg/injection, schedule: Q01DX001 (ip), vehicle: saline with Tween-80
[16] = dose: 100.0 mg/kg/injection, schedule: Q01DX009 (ip), vehicle: saline with Tween-80
[17] = dose: 6.25 mg/kg/injection, schedule: Q01DX009 (ip), vehicle: Klucel (hydroxypropylcellulose) (HPC)
[18] = dose: 12.5 mg/kg/injection, schedule: Q01DX009 (ip), vehicle: Klucel (hydroxypropylcellulose) (HPC)
[19] = dose: 50.0 mg/kg/injection, schedule: Q01DX001 (ip), vehicle: carboxymethylcellulose (CMC)
[20] = dose: 100.0 mg/kg/injection, schedule: Q01DX001 (ip), vehicle: carboxymethylcellulose (CMC)
[21] = dose: 200.0 mg/kg/injection, schedule: Q01DX001 (ip), vehicle: carboxymethylcellulose (CMC)
[22] = dose: 400.0 mg/kg/injection, schedule: Q01DX001 (ip), vehicle: carboxymethylcellulose (CMC)
[23] = dose: 100.0 mg/kg/injection, schedule: Q01DX009 (ip), vehicle: saline

Measured: T/C

Cn1ncc2c(NCc3ccccc3)ncnc21
inactive: [1] 97 % of control | [2] 110 % of control

CCC(O)C(CC(C)N(C)C)(c1ccccc1)c1ccccc1 (stereo unspecified)
inactive: [1] 108 % of control

CCCCNC(=O)Nc1ccccc1C(N)=O
inactive: [3] 97 % of control | [4] 98 % of control | [5] 95 % of control | [6] 94 % of control | [7] 105 % of control | [8] 96 % of control

CC(NC(=O)CNC(=O)CNC(=O)OCc1ccccc1)C(=O)O (stereo unspecified)
inactive: [4] 97 % of control | [6] 100 % of control | [8] 91 % of control

CC(C)COCCCN
inactive: dose: 10.0 mg/kg/injection, schedule: Q01DX009 (ip), vehicle: saline 95 % of control | [9] 95 % of control

COc1cccc(C23CCCCC2=NCC3)c1 (stereo unspecified)
inactive: dose: 25.0 mg/kg/injection, schedule: Q04DX003 (ip), vehicle: saline 100 % of control | dose: 50.0 mg/kg/injection, schedule: Q04DX003 (ip), vehicle: saline 107 % of control | dose: 100.0 mg/kg/injection, schedule: Q04DX003 (ip), vehicle: saline 89 % of control

CSc1nc(N)c2n[nH]nc2n1
inactive: [10] 103 % of control | [11] 95 % of control | [12] 95 % of control

O=NN(CCCl)C(=O)Nc1ccccc1NC(=O)N(CCCl)N=O
inactive: dose: 4.0 mg/kg/injection, schedule: Q01DX001 (ip), vehicle: carboxymethylcellulose (CMC) 122 % of control

CCCCCCCC(=N)OCC
inactive: [13] 97 % of control | [14] 104 % of control | [15] 94 % of control | [16] 110 % of control | [10] 93 % of control | dose: 200.0 mg/kg/injection, schedule: Q01DX001 (ip), vehicle: saline with Tween-80 104 % of control | [11] 87 % of control

C=[CH][Sn]([CH]=C)([CH]=C)[O]C(C)=O
inactive: dose: 1.56 mg/kg/injection, schedule: Q01DX009 (ip), vehicle: Klucel (hydroxypropylcellulose) (HPC) 103 % of control | dose: 3.12 mg/kg/injection, schedule: Q01DX009 (ip), vehicle: Klucel (hydroxypropylcellulose) (HPC) 94 % of control | [17] 98 % of control | [18] 103 % of control | dose: 12.5 mg/kg/injection, schedule: Q04DX002 (ip), vehicle: Klucel (hydroxypropylcellulose) (HPC) 102 % of control | dose: 25.0 mg/kg/injection, schedule: Q04DX002 (ip), vehicle: Klucel (hydroxypropylcellulose) (HPC) 105 % of control

CCCN(CCC)CP(=S)(CN(CCC)CCC)CN(CCC)CCC
inactive: [1] 92 % of control | [2] 90 % of control

O=C(O)C1C2CCCCC2=C2CCCCC2C1C(=O)O (stereo unspecified)
inactive: dose: 100.0 mg/kg/injection, schedule: Q04DX002 (ip), vehicle: Klucel (hydroxypropylcellulose) (HPC) 90 % of control | [10] 93 % of control | dose: 200.0 mg/kg/injection, schedule: Q04DX002 (ip), vehicle: Klucel (hydroxypropylcellulose) (HPC) 98 % of control | [11] 94 % of control | dose: 400.0 mg/kg/injection, schedule: Q04DX002 (ip), vehicle: Klucel (hydroxypropylcellulose) (HPC) 93 % of control | [12] 91 % of control

COC(=O)c1ccc2cc(OC)cc([N+](=O)[O-])c2n1
inactive: [19] 87 % of control | [20] 93 % of control | [21] 102 % of control | [22] 93 % of control

Cc1cc(C)c2[nH]c(=O)c(C)c(C)c2c1
inactive: dose: 100.0 mg/kg/injection, schedule: Q01DX001 (ip), vehicle: other 104 % of control | dose: 200.0 mg/kg/injection, schedule: Q01DX001 (ip), vehicle: other 95 % of control | dose: 400.0 mg/kg/injection, schedule: Q01DX001 (ip), vehicle: other 95 % of control

COc1cc(OC(C)=O)c2ncccc2c1OC(C)=O
inactive: [1] 94 % of control

c1cncc(SC23CC4CC(CC(C4)C2)C3)c1
inactive: [3] 106 % of control | [5] 93 % of control | [7] 106 % of control

Nc1c(Br)cc2c([nH]c(=O)c3cc(Br)ccc32)c1Br
inactive: [20] 101 % of control | [21] 104 % of control | [22] 106 % of control

COc1ccc(OC)c(C2=CCCCCC2)c1OC
inactive: [16] 95 % of control | dose: 200.0 mg/kg/injection, schedule: Q01DX009 (ip), vehicle: saline with Tween-80 106 % of control | dose: 400.0 mg/kg/injection, schedule: Q01DX009 (ip), vehicle: saline with Tween-80 100 % of control

O=C1c2ccccc2C(=O)N1C1CCC(O)CC1 (stereo unspecified)
inactive: dose: 25.0 mg/kg/injection, schedule: Q01DX009 (ip), vehicle: saline with Tween-80 101 % of control | dose: 25.0 mg/kg/injection, schedule: Q04DX003 (ip), vehicle: saline with Tween-80 107 % of control | [13] 93 % of control | [14] 102 % of control | [15] 103 % of control | [16] 103 % of control | [10] 102 % of control

CC1(C)OCC(C2OC(=O)C(O)=C2O)O1 (stereo unspecified)
inactive: [9] 111 % of control | [23] 92 % of control | dose: 200.0 mg/kg/injection, schedule: Q01DX009 (ip), vehicle: saline 101 % of control

COc1ccc(C(=O)/C=C/c2ccccc2Cl)cc1
inactive: [10] 97 % of control | [11] 97 % of control

CN(C)C(=O)N1CCCCC1
inactive: dose: 100.0 mg/kg/injection, schedule: Q04DX002 (ip), vehicle: saline with Tween-80 101 % of control | dose: 200.0 mg/kg/injection, schedule: Q04DX002 (ip), vehicle: saline with Tween-80 93 % of control | dose: 400.0 mg/kg/injection, schedule: Q04DX002 (ip), vehicle: saline with Tween-80 111 % of control

COc1c(Br)c(Br)c(Br)c(OC)c1OC
inactive: [19] 98 % of control | [20] 101 % of control | [21] 106 % of control | [22] 98 % of control

O=C(CCCN1CCC(n2c(=O)[nH]c3ccccc32)CC1)c1ccc(F)cc1
inactive: [17] 92 % of control | [18] 113 % of control | dose: 12.5 mg/kg/injection, schedule: Q01DX009 (ip), vehicle: saline 102 % of control | dose: 25.0 mg/kg/injection, schedule: Q01DX009 (ip), vehicle: Klucel (hydroxypropylcellulose) (HPC) 120 % of control | dose: 25.0 mg/kg/injection, schedule: Q01DX009 (ip), vehicle: saline 110 % of control | dose: 25.0 mg/kg/injection, schedule: Q04DX003 (ip), vehicle: Klucel (hydroxypropylcellulose) (HPC) 98 % of control and 90 % of control | dose: 50.0 mg/kg/injection, schedule: Q01DX009 (ip), vehicle: Klucel (hydroxypropylcellulose) (HPC) 96 % of control | [9] 93 % of control | dose: 50.0 mg/kg/injection, schedule: Q04DX003 (ip), vehicle: Klucel (hydroxypropylcellulose) (HPC) 96 % of control | [23] 93 % of control | [4] 91 % of control and 111 % of control | [6] 110 % of control | [8] 97 % of control

O=C(/C=C\c1ccc(C(=O)Nc2ccc(C3=NCCN3)cc2)cc1)Nc1ccc(C2=NCCN2)cc1
inactive: dose: 6.0 mg/kg/injection, schedule: Q01DX Z (ip), vehicle: water 110 % of control | dose: 11.0 mg/kg/injection, schedule: Q01DX Z (ip), vehicle: water 102 % of control | dose: 15.0 mg/kg/injection, schedule: Q01DX Z (ip), vehicle: saline 114 % of control | dose: 22.0 mg/kg/injection, schedule: Q01DX Z (ip), vehicle: water 104 % of control | dose: 30.0 mg/kg/injection, schedule: Q01DX Z (ip), vehicle: saline 120 % of control | dose: 45.0 mg/kg/injection, schedule: Q01DX Z (ip), vehicle: water 107 % of control | dose: 60.0 mg/kg/injection, schedule: Q01DX Z (ip), vehicle: saline 122 % of control | dose: 120.0 mg/kg/injection, schedule: Q01DX Z (ip), vehicle: saline 113 % of control | dose: 240.0 mg/kg/injection, schedule: Q01DX Z (ip), vehicle: saline 117 % of control | dose: 480.0 mg/kg/injection, schedule: Q01DX Z (ip), vehicle: saline 103 % of control
